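48-hour exposure; five concentrations; linearly interpolated endpoints. TGI denotes the concentration required for complete inhibition of growth.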
Tests used:
Test in all cases: inhibition of tumour cell growth, NCI panel, 48 h
HOP-92 NSCLC = test system: HOP-92 NSCLC
COLO 205 colon = test system: COLO 205 colon
NCI-H460 lung = test system: NCI-H460 lung
HT29 colon = test system: HT29 colon
SNB-75 CNS = test system: SNB-75 CNS
MDA-MB-435 = test system: MDA-MB-435
OVCAR-3 ovarian = test system: OVCAR-3 ovarian
SK-OV-3 ovarian = test system: SK-OV-3 ovarian
SK-MEL-28 melanoma = test system: SK-MEL-28 melanoma
786-0 renal = test system: 786-0 renal
K-562 leukemia = test system: K-562 leukemia
KM12 colon = test system: KM12 colon
HOP-62 NSCLC = test system: HOP-62 NSCLC
SW-620 colon = test system: SW-620 colon
ACHN renal = test system: ACHN renal
SK-MEL-5 melanoma = test system: SK-MEL-5 melanoma
M14 melanoma = test system: M14 melanoma
A498 renal = test system: A498 renal
TK-10 renal = test system: TK-10 renal
DU-145 prostate = test system: DU-145 prostate
SR leukemia = test system: SR leukemia
IGROV1 ovarian = test system: IGROV1 ovarian
NCI/ADR-RES ovarian = test system: NCI/ADR-RES ovarian
RXF 393 renal = test system: RXF 393 renal
CCRF-CEM leukemia = test system: CCRF-CEM leukemia
MDA-MB-231 breast = test system: MDA-MB-231 breast
BT-549 breast = test system: BT-549 breast
MOLT-4 leukemia = test system: MOLT-4 leukemia
HCC-2998 colon = test system: HCC-2998 colon
PC-3 prostate = test system: PC-3 prostate
SNB-19 CNS = test system: SNB-19 CNS
SF-268 CNS = test system: SF-268 CNS
SF-539 CNS = test system: SF-539 CNS
SN12C renal = test system: SN12C renal
HCT-116 colon = test system: HCT-116 colon
OVCAR-5 ovarian = test system: OVCAR-5 ovarian
HCT-15 colon = test system: HCT-15 colon
MALME-3M melanoma = test system: MALME-3M melanoma
OVCAR-4 ovarian = test system: OVCAR-4 ovarian
CAKI-1 renal = test system: CAKI-1 renal
OVCAR-8 ovarian = test system: OVCAR-8 ovarian
NCI-H522 lung = test system: NCI-H522 lung
A549 NSCLC = test system: A549 NSCLC
U251 CNS = test system: U251 CNS
LOX IMVI melanoma = test system: LOX IMVI melanoma
SF-295 CNS = test system: SF-295 CNS
T-47D breast = test system: T-47D breast
EKVX NSCLC = test system: EKVX NSCLC
SK-MEL-2 melanoma = test system: SK-MEL-2 melanoma
MDA-N = test system: MDA-N
NCI-H23 lung = test system: NCI-H23 lung
MCF7 breast = test system: MCF7 breast
HL-60(TB) leukemia = test system: HL-60(TB) leukemia
UO-31 renal = test system: UO-31 renal
RPMI-8226 leukemia = test system: RPMI-8226 leukemia
UACC-257 melanoma = test system: UACC-257 melanoma
HS 578T breast = test system: HS 578T breast
UACC-62 melanoma = test system: UACC-62 melanoma
NCI-H226 lung = test system: NCI-H226 lung

O=C1Nc2ccc(Br)cc2C1=Nc1ccc2c(c1)OCO2
TGI (HOP-92 NSCLC): > 100 µM | TGI (COLO 205 colon): 31.9 µM | TGI (NCI-H460 lung): 67.9 µM | TGI (HT29 colon): 39.1 µM | TGI (SNB-75 CNS): 98.4 µM | TGI (MDA-MB-435): 22.4 µM | TGI (OVCAR-3 ovarian): 61.8 µM | TGI (SK-OV-3 ovarian): > 100 µM | TGI (SK-MEL-28 melanoma): > 100 µM | TGI (786-0 renal): 48.2 µM | TGI (K-562 leukemia): 61.6 µM | TGI (KM12 colon): 44.5 µM | TGI (HOP-62 NSCLC): 44.5 µM | TGI (SW-620 colon): 74.1 µM | TGI (ACHN renal): 68.7 µM | TGI (SK-MEL-5 melanoma): 30 µM | TGI (M14 melanoma): 40.6 µM | TGI (A498 renal): 97.3 µM | TGI (TK-10 renal): 59.6 µM | TGI (DU-145 prostate): > 100 µM | TGI (SR leukemia): 73.5 µM | TGI (IGROV1 ovarian): > 100 µM | TGI (NCI/ADR-RES ovarian): 85.8 µM | TGI (RXF 393 renal): 38.9 µM | TGI (CCRF-CEM leukemia): 55.3 µM | TGI (MDA-MB-231 breast): 39.2 µM | TGI (BT-549 breast): 50.5 µM | TGI (MOLT-4 leukemia): 50.2 µM | TGI (HCC-2998 colon): 30 µM | TGI (PC-3 prostate): 33.6 µM | TGI (SNB-19 CNS): > 100 µM | TGI (SF-268 CNS): > 100 µM | TGI (SF-539 CNS): 37.3 µM | TGI (SN12C renal): 34.4 µM | TGI (HCT-116 colon): 33.6 µM | TGI (OVCAR-5 ovarian): 51.9 µM | TGI (HCT-15 colon): 53.4 µM | TGI (MALME-3M melanoma): 35.6 µM | TGI (OVCAR-4 ovarian): 17.1 µM | TGI (CAKI-1 renal): 64.5 µM | TGI (OVCAR-8 ovarian): > 100 µM | TGI (NCI-H522 lung): 43 µM | TGI (A549 NSCLC): > 100 µM | TGI (U251 CNS): 25.3 µM | TGI (LOX IMVI melanoma): 64.9 µM | TGI (SF-295 CNS): 78.7 µM | TGI (T-47D breast): > 100 µM | TGI (EKVX NSCLC): 74.8 µM | TGI (SK-MEL-2 melanoma): 35.3 µM | TGI (MDA-N): 30.4 µM | TGI (NCI-H23 lung): > 100 µM | TGI (MCF7 breast): 37 µM | TGI (HL-60(TB) leukemia): 43.6 µM | TGI (UO-31 renal): 44.1 µM | TGI (RPMI-8226 leukemia): 63.2 µM | TGI (UACC-257 melanoma): 34.8 µM | TGI (HS 578T breast): 98.7 µM | TGI (UACC-62 melanoma): 29.1 µM | TGI (NCI-H226 lung): 60.8 µM

O=C(/C=C/c1cccc2ccccc12)c1ccccc1
TGI (HOP-92 NSCLC): 33.6 µM | TGI (COLO 205 colon): 48.6 µM | TGI (NCI-H460 lung): 37.2 µM | TGI (HT29 colon): 15.8 µM | TGI (SNB-75 CNS): 30.6 µM | TGI (MDA-MB-435): 24.1 µM | TGI (OVCAR-3 ovarian): 22.4 µM | TGI (SK-OV-3 ovarian): 34.2 µM | TGI (SK-MEL-28 melanoma): 33.6 µM | TGI (786-0 renal): 23.5 µM | TGI (K-562 leukemia): 8.69 µM | TGI (KM12 colon): > 42.2 µM | TGI (HOP-62 NSCLC): 43 µM | TGI (SW-620 colon): 15.5 µM | TGI (ACHN renal): 26.9 µM | TGI (SK-MEL-5 melanoma): 28.4 µM | TGI (M14 melanoma): 32.9 µM | TGI (A498 renal): 33.3 µM | TGI (TK-10 renal): 17.6 µM | TGI (DU-145 prostate): 29 µM | TGI (SR leukemia): > 100 µM | TGI (IGROV1 ovarian): 20.5 µM | TGI (NCI/ADR-RES ovarian): 33.6 µM | TGI (RXF 393 renal): 27.5 µM | TGI (CCRF-CEM leukemia): 87.3 µM | TGI (MDA-MB-231 breast): 25.5 µM | TGI (BT-549 breast): 28.5 µM | TGI (MOLT-4 leukemia): > 34.7 µM | TGI (HCC-2998 colon): 34.1 µM | TGI (PC-3 prostate): 20.4 µM | TGI (SNB-19 CNS): 30.2 µM | TGI (SF-268 CNS): 32.6 µM | TGI (SF-539 CNS): 15.6 µM | TGI (SN12C renal): 24.9 µM | TGI (HCT-116 colon): 24.1 µM | TGI (OVCAR-5 ovarian): 28.8 µM | TGI (HCT-15 colon): 23.1 µM | TGI (MALME-3M melanoma): 26.9 µM | TGI (OVCAR-4 ovarian): 27.1 µM | TGI (CAKI-1 renal): 28 µM | TGI (OVCAR-8 ovarian): 21.6 µM | TGI (NCI-H522 lung): 25.2 µM | TGI (A549 NSCLC): > 52.4 µM | TGI (U251 CNS): 22 µM | TGI (LOX IMVI melanoma): 4.53 µM | TGI (SF-295 CNS): 35.1 µM | TGI (T-47D breast): 27.3 µM | TGI (EKVX NSCLC): 26.3 µM | TGI (SK-MEL-2 melanoma): 34.2 µM | TGI (MDA-N): 23.9 µM | TGI (NCI-H23 lung): 28 µM | TGI (MCF7 breast): 15.1 µM | TGI (HL-60(TB) leukemia): > 21.2 µM | TGI (UO-31 renal): 16.3 µM | TGI (RPMI-8226 leukemia): 7.98 µM | TGI (UACC-257 melanoma): 29.7 µM | TGI (HS 578T breast): > 74.9 µM | TGI (UACC-62 melanoma): 25.3 µM | TGI (NCI-H226 lung): 27.9 µM
